Data: ChEMBL document CHEMBL1154613, “Antagonists of the calcium receptor. 2. Amino alcohol-based parathyroid hormone secretagogues” (J Med Chem, 2009)

Tests used:
[1] = molecular target: T1, Extracellular calcium-sensing receptor (Homo sapiens, UniProt P41180); experiment: Antagonist activity at human calcium receptor expressed in HEK293 4.0-7 cells assessed as inhibition of intracellular calcium release by FLIPR assay; format: functional, cell-based
T1 sequence (P41180 whole entry): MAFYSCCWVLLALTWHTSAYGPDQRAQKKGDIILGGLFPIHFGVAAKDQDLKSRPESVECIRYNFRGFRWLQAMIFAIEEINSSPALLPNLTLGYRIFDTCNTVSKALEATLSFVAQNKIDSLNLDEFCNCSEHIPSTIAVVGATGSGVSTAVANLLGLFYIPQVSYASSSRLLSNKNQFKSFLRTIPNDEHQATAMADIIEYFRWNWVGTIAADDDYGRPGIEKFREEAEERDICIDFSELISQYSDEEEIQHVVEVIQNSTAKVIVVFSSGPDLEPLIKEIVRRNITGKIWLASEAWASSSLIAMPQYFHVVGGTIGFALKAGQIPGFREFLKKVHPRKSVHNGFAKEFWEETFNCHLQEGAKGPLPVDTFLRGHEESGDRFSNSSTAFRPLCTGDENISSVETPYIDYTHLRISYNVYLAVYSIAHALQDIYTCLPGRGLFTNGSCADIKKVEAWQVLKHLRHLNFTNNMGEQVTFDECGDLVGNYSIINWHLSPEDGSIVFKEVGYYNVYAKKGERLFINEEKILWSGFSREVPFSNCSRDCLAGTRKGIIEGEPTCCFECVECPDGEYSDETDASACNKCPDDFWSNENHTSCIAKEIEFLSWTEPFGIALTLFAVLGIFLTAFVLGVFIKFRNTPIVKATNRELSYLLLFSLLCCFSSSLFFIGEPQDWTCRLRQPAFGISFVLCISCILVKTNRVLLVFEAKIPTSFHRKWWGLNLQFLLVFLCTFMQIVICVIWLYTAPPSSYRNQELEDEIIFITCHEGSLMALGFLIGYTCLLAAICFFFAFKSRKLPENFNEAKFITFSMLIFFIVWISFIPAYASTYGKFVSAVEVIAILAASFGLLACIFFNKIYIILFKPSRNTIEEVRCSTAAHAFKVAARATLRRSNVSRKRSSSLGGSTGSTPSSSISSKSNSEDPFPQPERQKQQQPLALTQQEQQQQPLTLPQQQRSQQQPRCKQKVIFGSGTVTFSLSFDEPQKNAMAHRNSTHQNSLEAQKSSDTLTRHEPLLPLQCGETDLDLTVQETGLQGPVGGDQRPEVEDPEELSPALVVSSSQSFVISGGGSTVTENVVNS

[2] = Half life in iv and po dosed dog; format: ADME, organism-based, Canis lupus familiaris; conditions: in vivo
[3] = molecular target: Beta-2 adrenergic receptor (Homo sapiens, UniProt P07550); experiment: Inhibition of beta2 adrenergic receptor
[4] = Mean residence time in iv and po dosed dog; format: ADME, organism-based, Canis lupus familiaris; conditions: in vivo
[5] = molecular target: T1, Extracellular calcium-sensing receptor; experiment: Displacement of [3H](2-(2-hydroxyphenyl)-6-methyl-5-(2-methylpropyl)-3-(2-phenylethyl)-4(3H)-pyrimidinone) from human calcium receptor expressed in human HEK293 4.0-7 cells by liquid scintillation counting; format: cell-based
[6] = molecular target: Sodium-dependent serotonin transporter (Homo sapiens, UniProt P31645); experiment: Inhibition of SERT
[7] = molecular target: Sodium-dependent noradrenaline transporter (Homo sapiens, UniProt P23975); experiment: Inhibition of NET
[8] = test system: Canis familiaris; experiment: Cmax in dog assessed as (R)-3-(3-cyano-4-(2-hydroxy-3-(2-methyl-1-(naphthalen-2-yl)propan-2-ylamino)propoxy)phenyl)propanoic acid levels at 23.4 mg/kg, po; format: ADME, organism-based, Canis lupus familiaris; parameters: dose 23.4 mg/kg, route oral; conditions: in vivo
[9] = test system: Canis familiaris; experiment: Tmax in dog assessed as (R)-3-(3-cyano-4-(2-hydroxy-3-(2-methyl-1-(naphthalen-2-yl)propan-2-ylamino)propoxy)phenyl)propanoic acid levels at 23.4 mg/kg, po; format: ADME, organism-based, Canis lupus familiaris; parameters: dose 23.4 mg/kg, route oral; conditions: in vivo
[10] = test system: Rattus norvegicus; experiment: Oral bioavailability in rat assessed as (R)-3-(3-cyano-4-(2-hydroxy-3-(2-methyl-1-(naphthalen-2-yl)propan-2-ylamino)propoxy)phenyl)propanoic acid levels; format: ADME, organism-based; conditions: in vivo
[11] = molecular target: Cytochrome P450 2D6 (Homo sapiens, UniProt P10635); experiment: Inhibition of CYP2D6; format: ADME
[12] = Half life in iv and po dosed rat; format: ADME, organism-based; conditions: in vivo
[13] = test system: Canis familiaris; experiment: Oral bioavailability in dog assessed as (R)-3-(3-cyano-4-(2-hydroxy-3-(2-methyl-1-(naphthalen-2-yl)propan-2-ylamino)propoxy)phenyl)propanoic acid levels; format: ADME, organism-based, Canis lupus familiaris; conditions: in vivo
[14] = Mean residence time in iv and po dosed rat; format: ADME, organism-based; conditions: in vivo
[15] = molecular target: Sodium-dependent dopamine transporter (Homo sapiens, UniProt Q01959); experiment: Inhibition of DAT
[16] = Oral bioavailability in rat; format: ADME, organism-based; conditions: in vivo
[17] = molecular target: Voltage-gated inwardly rectifying potassium channel KCNH2 (Homo sapiens, UniProt Q12809)
[18] = Volume of distribution at steady state in iv and po dosed rat; format: ADME, organism-based; conditions: in vivo, read-out: Vdss
[19] = Clearance in iv and po dosed rat; format: ADME, organism-based; conditions: in vivo
[20] = Volume of distribution at steady state in iv and po dosed dog; format: ADME, organism-based, Canis lupus familiaris; conditions: in vivo, read-out: Vdss
[21] = test system: Rattus norvegicus; experiment: Metabolic stability in intraportal dosed rat assessed as hepatic first pass; format: ADME, organism-based; conditions: in vivo, other
[22] = test system: Canis familiaris; experiment: Metabolic stability in intraportal dosed dog assessed as hepatic first pass; format: ADME, organism-based, Canis lupus familiaris; conditions: in vivo, other
[23] = Clearance in iv and po dosed dog; format: ADME, organism-based, Canis lupus familiaris; conditions: in vivo

Sequence of Sodium-dependent noradrenaline transporter (P23975 whole entry): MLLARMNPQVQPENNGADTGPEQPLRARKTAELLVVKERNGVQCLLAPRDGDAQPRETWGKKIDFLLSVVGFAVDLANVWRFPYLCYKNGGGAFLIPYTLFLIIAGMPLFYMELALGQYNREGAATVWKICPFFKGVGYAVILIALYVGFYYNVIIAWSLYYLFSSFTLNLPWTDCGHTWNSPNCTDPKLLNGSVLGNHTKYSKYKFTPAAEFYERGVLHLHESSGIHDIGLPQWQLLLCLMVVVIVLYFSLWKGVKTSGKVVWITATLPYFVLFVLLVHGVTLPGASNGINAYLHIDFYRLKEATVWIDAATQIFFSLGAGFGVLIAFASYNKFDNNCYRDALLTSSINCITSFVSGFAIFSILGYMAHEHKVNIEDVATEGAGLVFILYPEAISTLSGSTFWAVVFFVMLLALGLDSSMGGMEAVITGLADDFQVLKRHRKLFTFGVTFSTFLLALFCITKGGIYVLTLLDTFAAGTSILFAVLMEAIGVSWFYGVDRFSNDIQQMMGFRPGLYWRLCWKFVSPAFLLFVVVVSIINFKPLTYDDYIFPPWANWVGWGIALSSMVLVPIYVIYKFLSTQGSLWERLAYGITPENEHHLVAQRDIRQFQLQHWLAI
Sequence of Cytochrome P450 2D6 (P10635 whole entry): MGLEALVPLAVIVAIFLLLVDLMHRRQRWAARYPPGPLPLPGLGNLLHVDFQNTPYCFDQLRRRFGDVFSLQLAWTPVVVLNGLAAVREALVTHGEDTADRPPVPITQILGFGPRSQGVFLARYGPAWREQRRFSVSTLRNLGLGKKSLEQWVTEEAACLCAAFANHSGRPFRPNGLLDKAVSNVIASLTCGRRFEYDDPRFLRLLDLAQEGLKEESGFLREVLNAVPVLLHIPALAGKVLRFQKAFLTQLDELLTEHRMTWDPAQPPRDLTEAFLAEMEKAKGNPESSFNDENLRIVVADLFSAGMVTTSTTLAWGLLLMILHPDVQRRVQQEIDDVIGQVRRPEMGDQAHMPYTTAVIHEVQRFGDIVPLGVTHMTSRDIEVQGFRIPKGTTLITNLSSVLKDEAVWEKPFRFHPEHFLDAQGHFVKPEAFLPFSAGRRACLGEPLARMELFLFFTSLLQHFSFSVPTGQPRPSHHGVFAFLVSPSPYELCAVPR
Sequence of Voltage-gated inwardly rectifying potassium channel KCNH2 (Q12809 whole entry): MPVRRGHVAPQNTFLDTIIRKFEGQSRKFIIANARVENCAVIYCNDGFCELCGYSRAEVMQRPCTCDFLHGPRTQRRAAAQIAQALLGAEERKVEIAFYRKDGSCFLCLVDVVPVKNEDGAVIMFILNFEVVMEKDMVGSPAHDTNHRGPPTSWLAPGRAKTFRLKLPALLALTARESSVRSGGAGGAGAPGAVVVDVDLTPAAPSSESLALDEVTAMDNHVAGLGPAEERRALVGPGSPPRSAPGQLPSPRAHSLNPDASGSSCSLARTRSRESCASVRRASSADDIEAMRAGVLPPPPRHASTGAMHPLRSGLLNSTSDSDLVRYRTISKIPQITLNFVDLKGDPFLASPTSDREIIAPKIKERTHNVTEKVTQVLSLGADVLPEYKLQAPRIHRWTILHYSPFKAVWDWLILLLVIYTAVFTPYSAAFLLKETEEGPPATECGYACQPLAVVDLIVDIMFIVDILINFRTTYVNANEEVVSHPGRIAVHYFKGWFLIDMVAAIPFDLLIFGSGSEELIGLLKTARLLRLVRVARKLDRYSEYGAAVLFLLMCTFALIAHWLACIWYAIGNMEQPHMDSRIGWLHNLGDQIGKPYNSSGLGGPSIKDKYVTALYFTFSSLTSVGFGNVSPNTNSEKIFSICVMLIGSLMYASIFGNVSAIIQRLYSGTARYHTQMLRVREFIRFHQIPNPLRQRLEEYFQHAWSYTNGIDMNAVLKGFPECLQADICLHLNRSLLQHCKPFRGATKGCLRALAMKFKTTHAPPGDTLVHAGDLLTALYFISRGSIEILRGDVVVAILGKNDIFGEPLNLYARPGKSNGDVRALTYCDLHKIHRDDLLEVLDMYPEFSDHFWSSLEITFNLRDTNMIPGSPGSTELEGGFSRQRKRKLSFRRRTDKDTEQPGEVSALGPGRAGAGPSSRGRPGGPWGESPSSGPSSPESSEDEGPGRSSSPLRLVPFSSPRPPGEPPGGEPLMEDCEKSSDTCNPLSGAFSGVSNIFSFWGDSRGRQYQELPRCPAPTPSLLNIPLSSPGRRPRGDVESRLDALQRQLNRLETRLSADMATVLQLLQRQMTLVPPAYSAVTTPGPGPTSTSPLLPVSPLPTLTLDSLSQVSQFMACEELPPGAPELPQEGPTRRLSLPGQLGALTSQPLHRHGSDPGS
Sequence of Sodium-dependent serotonin transporter (P31645 whole entry): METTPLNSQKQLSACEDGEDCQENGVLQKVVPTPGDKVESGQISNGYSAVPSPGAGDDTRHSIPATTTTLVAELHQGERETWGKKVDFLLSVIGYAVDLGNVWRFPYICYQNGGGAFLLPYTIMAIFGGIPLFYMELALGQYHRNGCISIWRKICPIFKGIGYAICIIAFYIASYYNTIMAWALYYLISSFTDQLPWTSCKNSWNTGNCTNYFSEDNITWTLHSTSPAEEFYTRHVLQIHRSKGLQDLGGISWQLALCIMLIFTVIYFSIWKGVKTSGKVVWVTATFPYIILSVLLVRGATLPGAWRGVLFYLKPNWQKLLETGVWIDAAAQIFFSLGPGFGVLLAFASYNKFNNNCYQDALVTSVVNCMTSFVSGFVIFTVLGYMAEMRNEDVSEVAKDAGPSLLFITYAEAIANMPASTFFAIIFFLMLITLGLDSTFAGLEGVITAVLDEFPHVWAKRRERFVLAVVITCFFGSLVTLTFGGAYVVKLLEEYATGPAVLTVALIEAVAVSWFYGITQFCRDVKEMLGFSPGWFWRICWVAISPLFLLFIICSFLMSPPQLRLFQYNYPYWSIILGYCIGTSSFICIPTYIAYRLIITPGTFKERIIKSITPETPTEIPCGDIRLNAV
Sequence of Beta-2 adrenergic receptor (P07550 whole entry): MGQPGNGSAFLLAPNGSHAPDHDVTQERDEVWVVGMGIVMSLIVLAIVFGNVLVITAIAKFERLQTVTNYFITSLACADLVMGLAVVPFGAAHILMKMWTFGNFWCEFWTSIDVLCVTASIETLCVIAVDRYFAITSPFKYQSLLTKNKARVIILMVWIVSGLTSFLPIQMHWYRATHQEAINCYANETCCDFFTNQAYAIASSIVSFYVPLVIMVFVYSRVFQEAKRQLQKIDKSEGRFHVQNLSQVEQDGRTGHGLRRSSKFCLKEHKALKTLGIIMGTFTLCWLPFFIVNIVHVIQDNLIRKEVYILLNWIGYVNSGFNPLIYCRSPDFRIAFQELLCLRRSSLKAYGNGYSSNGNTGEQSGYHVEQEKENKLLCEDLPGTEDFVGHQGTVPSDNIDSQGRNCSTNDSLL
Sequence of Sodium-dependent dopamine transporter (Q01959 whole entry): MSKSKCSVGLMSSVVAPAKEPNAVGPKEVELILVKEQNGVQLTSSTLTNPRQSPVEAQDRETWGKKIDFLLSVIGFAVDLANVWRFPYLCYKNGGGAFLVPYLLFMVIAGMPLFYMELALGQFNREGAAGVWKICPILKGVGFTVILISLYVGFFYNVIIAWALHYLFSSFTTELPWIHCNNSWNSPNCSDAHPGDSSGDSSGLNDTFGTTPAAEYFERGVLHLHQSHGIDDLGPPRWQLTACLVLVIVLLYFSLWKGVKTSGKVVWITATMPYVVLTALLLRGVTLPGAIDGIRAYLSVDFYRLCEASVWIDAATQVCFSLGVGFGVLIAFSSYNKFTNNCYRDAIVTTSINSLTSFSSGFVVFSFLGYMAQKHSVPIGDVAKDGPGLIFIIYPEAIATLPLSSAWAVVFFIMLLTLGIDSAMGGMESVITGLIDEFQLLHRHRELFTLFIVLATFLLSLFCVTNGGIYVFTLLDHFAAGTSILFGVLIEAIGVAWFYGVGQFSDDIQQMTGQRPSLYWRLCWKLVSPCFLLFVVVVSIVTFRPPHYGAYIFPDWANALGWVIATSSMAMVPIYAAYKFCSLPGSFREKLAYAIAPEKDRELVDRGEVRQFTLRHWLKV

| Compound | IC50 [1] | half-life [2] | IC50 [3] | MRT [4] | IC50 [5] | IC50 [6] | IC50 [7] | IC50 [11] | half-life [12] | MRT [14] | IC50 [15] | bioavailability [16] | Vd [18] | clearance [19] | IC50 [17] | other results |
| --- | --- | --- | --- | --- | --- | --- | --- | --- | --- | --- | --- | --- | --- | --- | --- | --- |
| CC(C)(Cc1ccc2ccccc2c1)NC[C@@H](O)COc1cccc(Cl)c1C#N | 58 nM |  | 4300 nM |  | 3 nM |  |  | 45 nM | 126 min | 150 min |  | 11.4% | 11 L/kg | 73.8 mL/min/kg | 3 nM |  |
| CC(C)(Cc1ccc2ccccc2c1)NC[C@@H](O)COc1ccccc1C#N | 18 nM |  |  |  | 3 nM | 3 nM | 3 nM | 100 nM |  |  | 2 nM |  |  |  | 3.2 nM |  |
| COc1ccc(CC(C)(C)NC[C@H](O)COc2cccc3[nH]c(=O)[nH]c23)cc1 | 11000 nM |  | 1.3 nM |  | 31800 nM |  |  | 1260 nM |  |  |  |  |  |  | 11.8 nM |  |
| CC(C)(Cc1ccc2ccccc2c1)NC[C@@H](O)COc1ccc(CCC(=O)O)cc1 | > 25000 nM |  | > 30000 nM |  | 4800 nM | 68 nM | 16000 nM | 52000 nM | 24 min | 18 min | 3700 nM | 4% | 2.1 L/kg | 118 mL/min/kg | 38.5 nM |  |

Now from value to compound, other results behind:

| IC50 [1] | half-life [2] | IC50 [3] | MRT [4] | IC50 [5] | IC50 [6] | IC50 [7] | IC50 [11] | half-life [12] | MRT [14] | IC50 [15] | bioavailability [16] | Vd [18] | clearance [19] | Compound | IC50 [17] | other results |
| --- | --- | --- | --- | --- | --- | --- | --- | --- | --- | --- | --- | --- | --- | --- | --- | --- |
| 34 nM | 73.8 min | 14000 nM | 82.2 min | 3 nM | 78 nM | 37 nM | 3000 nM | 52.8 min | 42 min | 59 nM |  |  |  | CCOC(=O)CCc1ccc(OC[C@H](O)CNC(C)(C)Cc2ccc3ccccc3c2)c(C#N)c1.Cl |  | Cmax [8]: 597 ng/mL; Tmax [9]: 30 min; F [10]: 9.5%; F [13]: 9.1% |
| 200 nM | 73.8 min | > 30000 nM | 51 min | 22 nM | 23 nM | 5400 nM | > 50000 nM | 33.6 min | 19.2 min | 2800 nM | 0.29% | 1.18 L/kg | 63.6 mL/min/kg | CC(C)(Cc1ccc2ccccc2c1)NC[C@@H](O)COc1ccc(CCC(=O)O)cc1C#N | 32.7 nM | Vd [20]: 0.78 L/kg; Activity [21]: 68%; Activity [22]: 90%; clearance [23]: 15.4 mL/min/kg |
